Patent US7048939B2, “Methods for the inhibition of neointima formation” (The Board of Trustees of the Leland Stanford Junior …, priority 2001, dated 2006)

Assays:
[1] = test system: infra-renal abdominal aorta; assay: Morphological analysis of intima/media ratios 28 days after in vivo stent implantation; set-up: species or system New Zealand White rabbits; conditions: 28 days after stent implantation, stent-based local release from microspheres, 0.25% cholesterol diet
Method: Microsphere Preparation. Biodegradable poly(lactic-co-glycolic-acid)-polyethylene glycol (PLGA/PEG) microspheres were prepared as a modification of previously described techniques. […] Additionally, a pH buffer of 7.4 was incorporated to limit local pH changes in order to stabilize incorporated drugs and render the microspheres more biocompatible. During the microsphere manufacturing process, 2.0 mg of the angiogenesis inhibitor angiostatin (Calbiochem, La Jolla, Calif.) in […] phosphate buffered saline was added to the polymer solution. Control microspheres (blank microspheres) containing polymer and buffer without any drug were also prepared. Stents were prepared as above. In Vivo Stent Implantation. Age-matched adult male New Zealand White rabbits weighing 3.8–4.2 kg were used in accordance to NIH and institutional guidelines (n=6 animals per group). Under general anesthesia, an arteriotomy at the femoral artery was performed and a 5 Fr introducing sheath was placed. Under fluoroscopic guidance, aseptically prepared channeled stents filled with blank or angiostatin microspheres were deployed in the infra-renal abdominal aorta. Stents were post-dilated at 8 atm with a 5 mm angioplasty balloon (Jupiter, Cordis, Miami, Fla.) to a final lumen size of 125% above the baseline with care taken to ensure that […] were present within the stent segment. Pre- and post-deployment digital subtraction angiograms were recorded for the blank procedural control and angiostatin treatment groups. The rabbits were fed a 0.25% cholesterol diet after the intervention. Early 7 day follow up (n=3 per group) or late 28 day follow-up (n=3 per group) animals underwent total-body perfusion-fixation as previously described with immediate excision of the aortic segment containing stent. The 7 day aortic specimens were excised longitudinally and stents were removed. The resulting aortic segments were divided into two equal subsegments. One subsegment of each underwent fixation in 10% neutral buffered formalin and embedded in paraffin-for light microscopic and morphologic analysis. The remaining subsegment of each specimen was snap frozen for molecular assay. The 28 days aortic specimens were fixed in 10% neutral buffered formalin and were embedded in PolyBed (Polysciences, Warrington, Pa.) for light microscopic and morphologic analysis. Morphological Analysis of Intima/Media (I/M) Ratios. The seven day analysis consisted of thick (5 μm) cross sections of the aortic wall were obtained from the paraffin-embedded specimens (n=9 sections per group). An elastic von Gieson-Masson trichrome or Elastica van Gieson-Hematoxylin double stain was performed for light microscopic analysis. For the 28 day specimen analysis (n=3 animals per group), each plastic-embedded aorta with stents was cut into five pieces longitudinally equal lengths. These pieces were stained by modified Verhoff elastic staining. Five cross sectional images of the stained aorta were obtained (n=15 sections per group) from one side of plastic pieces. […] Using Image Pro Plus software (Media Cybernetics, Silver Spring, Md.), the cross-sectional area of the intima and the media were determined by blinded observers. The ratio of intima area to media area subsequently tabulated for each, with the results presented as Table 2. Mean, standard error, and significance were determined.

[2] = test system: infra-renal abdominal aorta; assay: Local plaque stability parameters: macrophage infiltrate and endothelial density (CD31); type: in vivo, New Zealand White rabbits; conditions: 7 days after stent implantation
Method: In Vivo Stent Implantation. Age-matched adult male New Zealand White rabbits weighing 3.8–4.2 kg were used in accordance to NIH and institutional guidelines (n=6 animals per group). Under general anesthesia, an arteriotomy at the femoral artery was performed and a 5 Fr introducing sheath was placed. Under fluoroscopic guidance, aseptically prepared channeled stents filled with blank or angiostatin microspheres were deployed in the infra-renal abdominal aorta. Stents were post-dilated at 8 atm with a 5 mm angioplasty balloon (Jupiter, Cordis, Miami, Fla.) to a final lumen size of 125% above the baseline with care taken to ensure that […] were present within the stent segment. Pre- and post-deployment digital subtraction angiograms were recorded for the blank procedural control and angiostatin treatment groups. […]
Evaluation of Local Plaque Stability Parameters: Macrophage Infiltrate and Endothelial Density. Cross sections at the 7 day time point evaluated above were obtained (two per segment) from each vessel and incubated with a primary monoclonal antibody to rabbit macrophage (clone RAM-11, 1/800 dilution, DAKO, Carpinteria, Calif.). The number of positive cells per cross section was counted by a blinded observer. […] Mean and standard error were tabulated for each group with significance determined as before and p values as reported.

Molecule | Intima to media ratio (ratio of intimal area to medial area, mean ± SE) [1] | Number of plaque microvessels (CD31) per cross section (mean ± SE) [2] | Number of cross-sectional macrophages (mean ± SE) ([2]; RAM-11 positive cells per cross section) [P = 0.0011]
CCC[C@H](N[C@@H](C)C(=O)N1[C@H](C(=O)O)C[C@@H]2CCCC[C@@H]21)C(=O)O [ATIIr, perindoprilate, reference compound] | 1.730 ± 0.090 |  | 
CCNCCN(CC)N(O)N=O [NO, N-Ethyl-2-(1-ethyl-2-hydroxy-2-nitrosohydrazino) ethanamine, reference compound] | 1.338 ± 0.051 |  | 
CN1CCC[C@H]1c1cccnc1 [Nicotine, S-3-(1-methyl-2-pyrrolidinyl)pyridine, reference compound] | 1.377 ± 0.060 |  | 
AAT: elastase inhibitor alpha-1-antitrypsin (Calbiochem) | 1.322 ± 0.060 |  | 
Angiostatin | 1.610 ± 0.050 | 0.111 ± 0.111 | 34.889 ± 3.948
FGF: acidic FGF (Calbiochem) loaded with endotoxin-free heparin as a stabilizer | 1.634 ± 0.051 |  | 
TGFβ1: transforming growth factor β1 (Oncogene Research) | 1.803 ± 0.053 |  | 
Fas ligand: pro-apoptotic factor, death domain receptor ligand (Oncogene Research) (protein, UniProt P48023 130-281, looked up) Tumor necrosis factor ligand …: QIGHPSPPPEKKELRKVAHLTGKSNSRSMPLEWEDTYGIVLLSGVKYKKGGLVINETGLYFVYSKVYFRGQSCNNLPLSHKVYMRNSKYPQDLVMMEGKMMSYCTTGQMWARSSYLGAVFNLTSADHLYVNVSELSLVNFEESQTFFGLYKL | 1.356 ± 0.053 |  | 
